Like-named read-outs stand apart in the source and are kept apart here.
How the values were obtained:
[1] = target: T1, complex I (NADH:ubiquinone oxidoreductase); assay: NADH:decylubiquinone oxidoreduction by isolated complex I; assay type: biochemical, Bos taurus (bovine); settings: for IC50: isolated bovine complex I, 32°C, pH 7.2, 200 μM NADH, 200 μM decylubiquinone, 95% confidence intervals; for inhibition of complex I catalysis at extrapolated mitochondrial concentration: 10 mM metformin, 200 μM phenformin in mitochondria
T1 construct: from tissue; host or cells: bovine heart mitochondria
Description: Catalysis was initiated by the addition of NADH, following a 2 min pre-incubation, and rates measured as the linear regression of the maximal rate (discarding any initial lag phases). […] Control experiments included NaCl (to maintain the ionic strength) or DMSO.
Experimental values are reported as means±S.E.M. for small sample sizes or as means±S.D. for large sample sizes with only technical error sources. […] Comparisons between samples are marked *P<0.05, **P<0.01 and ****P<0.0001 as determined using an unpaired two-tailed Students t test. Differences between measurements with P>0.05 were considered not significant.

complex I flavin = tested on: T2, complex I flavin; assay: H2O2 production (NADH:O2 oxidoreduction) by isolated complex I; assay type: biochemical, bovine; settings: dose-response
T2 construct: from tissue; host or cells: bovine heart mitochondria (from context)
Description: (§1) NADH:decylubiquinone oxidoreduction was measured using 200 μM NADH and 200 μM decylubiquinone, in 0.075% soya bean asolectin (Avanti Polar Lipids) and 0.075% CHAPS (Merck Chemicals) and quantified by the absorbance of NADH (ε340–380=4.81 mM^−1·cm^−1). Catalysis was initiated by the addition of NADH, following a 2 min pre-incubation, and rates measured as the linear regression of the maximal rate (discarding any initial lag phases). […] Initial rates for the NADH:FeCN (ferricyanide), NADH:HAR [hexaammineruthenium(III)] and NADH:paraquat reactions were measured in 100 μM NADH with 1 mM FeCN (ε420–500=1 mM^−1·cm^−1), 3.5 mM HAR or 200 μM paraquat (ε340–380=4.81 mM^−1·cm^−1). H2O2 formation was followed in 30 μM NADH as the catalase-sensitive horseradish peroxidase-dependent oxidation of 10 μM Amplex Red to resorufin (ε557–620=51.6 mM^−1·cm^−1), with 2 units/ml superoxide dismutase, or by monitoring NADH oxidation. Metformin (Cambridge Bioscience) phenformin and buformin (Santa Cruz Biotechnology) were added from aqueous stock solutions, and cycloguanil (Santa Cruz Biotechnology) and proguanil (Sigma–Aldrich) were in DMSO. Control experiments included NaCl (to maintain the ionic strength) or DMSO.

complex I [2] = assay: NADH:decylubiquinone oxidoreduction by isolated complex I from yeast; assay type: biochemical, Pichia pastoris; settings: complex I from the yeast P. pastoris; read-out: IC50, inhibition of complex I
Description: (§2) Complex I was prepared from Bos taurus (bovine) heart mitochondria, Pichia pastoris and Escherichia coli, as described previously. SMPs (submitochondrial particles) and mitochondrial membranes were prepared from bovine heart mitochondria. Complex IV was a by-product from the preparation of complex I; it elutes from the Q-Sepharose column at ~250 mM NaCl. Mitochondria were isolated from rat liver by the method of Chappell and Hansford. F1FO-ATP synthase and the F1 domain were isolated from bovine mitochondria as described previously using a HiLoad Superdex 200-PG column and omitting azide and 2-mercaptoethanol.
(§3) NADH:decylubiquinone oxidoreduction was measured using 200 μM NADH and 200 μM decylubiquinone, in 0.075% soya bean asolectin (Avanti Polar Lipids) and 0.075% CHAPS (Merck Chemicals) and quantified by the absorbance of NADH (ε340–380=4.81 mM^−1·cm^−1). Catalysis was initiated by the addition of NADH, following a 2 min pre-incubation, and rates measured as the linear regression of the maximal rate (discarding any initial lag phases). […] Initial rates for the NADH:FeCN (ferricyanide), NADH:HAR [hexaammineruthenium(III)] and NADH:paraquat reactions were measured in 100 μM NADH with 1 mM FeCN (ε420–500=1 mM^−1·cm^−1), 3.5 mM HAR or 200 μM paraquat (ε340–380=4.81 mM^−1·cm^−1). […]

complex I [3] = assay: NADH:decylubiquinone oxidoreduction by isolated complex I from bacterium; assay type: biochemical, Escherichia coli; settings: read-out: IC50, inhibition of complex I; complex I from the bacterium E. coli
Description: as §2, §3

complex I [4] = assay: NADH:FeCN oxidoreduction by complex I from P. pastoris; assay type: biochemical, Pichia pastoris; settings: 200 mM metformin
Description: as §1

complex I [5] = assay: NADH:FeCN oxidoreduction by complex I from E. coli; assay type: biochemical, Escherichia coli; settings: 200 mM metformin
Description: as §1

complex I flavin site = tested on: T3, complex I flavin site; assay: NADH-dependence of NADH:FeCN catalysis by isolated bovine complex I; assay type: biochemical; settings: 100 mM metformin
T3 construct: from tissue; host or cells: bovine heart mitochondria

[6] = tested on: isolated rat skeletal muscle mitochondria; assay: H2O2 production by isolated rat skeletal muscle mitochondria (resorufin fluorescence); settings: glutamate and pyruvate, ATP and rotenone
From the text: . However, these extramitochondrial concentrations are very high and we are unable to control the intramitochondrial concentration or conditions, so the results are not quantitatively meaningful. […]

complex I in SMPs = tested on: T4, complex I in SMPs; assay: NADH oxidation by SMPs; assay type: biochemical, bovine; settings: 100 mM metformin added 10 min after initiation by 200 μM NADH
T4 construct: from tissue; host or cells: SMPs from bovine heart mitochondria

ATP synthase = tested on: T5, ATP synthase; assay: Succinate-driven ATP synthesis by SMPs; assay type: biochemical, bovine; settings: 15 mM buformin, 100 mM metformin; others up to concentrations above IC50 for ATP hydrolysis; corrected for succinate oxidation
T5 construct: from tissue; host or cells: SMPs from bovine heart mitochondria
From the text: Data points are means±S.E.M., n=3, as a percentage of ATP production in the absence of biguanide. […] (●).

143B osteosarcoma cells = assay: Rotenone-sensitive OCR of 143B cells (Seahorse); assay type: cell-based, human; settings: 6 h exposure, read-out: cellular IC50, rotenone-sensitive OCR
Description: Cells [143B (cell line 8303 from the A.T.C.C.) and Hep G2 (cell line 85011430 from The Health Protection Agency)] were grown on DMEM (Dulbecco's modified Eagle's medium) supplemented with 10% FBS (Thermo Fisher Scientific) and 100 units/ml penicillin and 100 μg/ml streptomycin at 37°C in 5% CO2. Per well, 3×10^4 or 1.5×10^4 cells were plated into XF24 or XF96 (Seahorse Bioscience) plates respectively, and incubated for 12 h at 37°C in 5% CO2. The medium was exchanged for assay buffer containing DMEM, 4.5 g/l glucose, 1 mM pyruvate, 32 mM NaCl, 2 mM GlutaMAX, 15 mg/l Phenol Red and 20 mM Hepes (pH 7.4) and the cells placed in a CO2-free incubator at 37°C for 60 min. OCRs (oxygen consumption rates) and ECARs (extracellular acidification rates) were measured in a Seahorse extracellular flux analyser; 200 nM rotenone was used to inhibit complex I where stated. To calculate the normalized rotenone-sensitive OCR rates, the rotenone-insensitive rates (determined at the end of the experiment) were subtracted and the traces normalized to 100% before biguanide addition. ECAR data were normalized to 100% before biguanide addition. For the permeabilized cell experiments, cells were seeded at 3.5×10^3 per well and incubated for 62 h at 37°C in 5% CO2. The medium was exchanged for assay buffer containing 3 nM plasma membrane permeabilizer ‘PMP’ (Seahorse Biosciences), 10 mM pyruvate, 10 mM malate, 220 mM mannitol, 70 mM sucrose, 10 mM KH2PO4, 5 mM MgCl, 1 mM EGTA, 0.2% fatty-acid-free BSA and 2 mM Hepes (pH 7.4) at 37°C. Cells were incubated for 15 min and a baseline was recorded for normalization, then the test compounds were added. […]
Biguanides are positively charged so they are expected to accumulate in the mitochondria of cells in response to the potential difference across the inner membrane (the potential difference is the ‘charge’ component of the protonmotive force). […] The OCRs were normalized to their values before biguanide addition, and monitored throughout the experiment; rotenone-insensitive rates were subtracted, and all rates after 6 h compared with a biguanide-free control. […]

[7] = tested on: Hep G2 hepatocarcinoma cells; assay: Rotenone-sensitive OCR and ECAR of Hep G2 cells (Seahorse); assay type: cell-based, human; settings: for IC50: Hep G2 cells, 6 h exposure, read-out: cellular IC50, rotenone-sensitive OCR; for effect on rotenone-sensitive OCR or ECAR: concentration equal to complex I IC50/10, 6 h of treatment
Description: OCRs (oxygen consumption rates) and ECARs (extracellular acidification rates) were measured in a Seahorse extracellular flux analyser; 200 nM rotenone was used to inhibit complex I where stated. To calculate the normalized rotenone-sensitive OCR rates, the rotenone-insensitive rates (determined at the end of the experiment) were subtracted and the traces normalized to 100% before biguanide addition. ECAR data were normalized to 100% before biguanide addition. […] Isolated rat liver mitochondria were plated at 20 μg per well in the same buffer but without PMP. They were adhered to the plate by centrifugation at 2000 g for 20 min at 4°C and measurements performed and normalized (after temperature equilibration) as for permeabilized cells but at 32°C.
(§4) Biguanides are positively charged so they are expected to accumulate in the mitochondria of cells in response to the potential difference across the inner membrane (the potential difference is the ‘charge’ component of the protonmotive force). Each 60 mV of potential difference drives the concentration of the positive ion to 10-times higher inside the mitochondrion than outside. For a typical potential difference of 120–150 mV the concentration inside the mitochondrion could therefore be 100 to 300-times higher than outside. […] The OCRs were normalized to their values before biguanide addition, and monitored throughout the experiment; rotenone-insensitive rates were subtracted, and all rates after 6 h compared with a biguanide-free control.

[8] = Typical blood serum levels; assay type: in vivo; settings: 1000-fold accumulation at combined membrane potentials of 180 mV
[9] = tested on: immunoprecipitated complex I; design: method as in PMID 18817800; settings: previous data; cited from earlier work
[10] = design: method as in PMID 12889529; settings: cited from earlier work
[11] = tested on: T6, isolated F1 domain of ATPase; assay: ATP hydrolysis by the isolated F1 domain; assay type: biochemical, bovine; settings: at the SMP IC50 values
T6 construct: from tissue; host or cells: bovine mitochondria
Description: Complex I was prepared from Bos taurus (bovine) heart mitochondria, Pichia pastoris and Escherichia coli, as described previously. SMPs (submitochondrial particles) and mitochondrial membranes were prepared from bovine heart mitochondria. […] Mitochondria were isolated from rat liver by the method of Chappell and Hansford. F1FO-ATP synthase and the F1 domain were isolated from bovine mitochondria as described previously using a HiLoad Superdex 200-PG column and omitting azide and 2-mercaptoethanol.

F1FO-ATPase = target: T7, F1FO-ATPase; assay: ATP hydrolysis by F1FO-ATPase in SMPs (coupled assay); assay type: biochemical; settings: bovine SMPs
T7 construct: from tissue; host or cells: SMPs from bovine heart mitochondria

[12] = target: T8, isolated ATPase (F1FO-ATP synthase); assay: ATP hydrolysis by isolated intact ATPase; assay type: biochemical, bovine; settings: isolated intact enzyme
T8 construct: from tissue; host or cells: bovine mitochondria
Description: as §2

complex III = assay: Complex III inhibition (succinate:cytochrome c oxidoreduction); settings: read-out: IC50 on complex III
143B and Hep G2 cells = assay: Accumulation into mitochondria of cultured cells inferred from complex I inhibition; assay type: cell-based, human; settings: 6 h
From the text: as §4, with “control. […]. […] […].” for “control.”

Compound | IC50 [1] | H2O2 production rate maximum (complex I flavin) | inhibition of complex I catalysis at extrapolated mitochondrial concentration [1] | effect on succinate-driven ATP synthesis (ATP synthase) | IC50 (143B osteosarcoma cells; Homo sapiens, 143B, 6 h) | mitochondrial concentration extrapolated from serum [8] | serum concentration [10] | inhibition of ATP hydrolysis by the isolated F1 domain [11] | effect on rotenone-sensitive OCR or ECAR [7] | other results
N=C(N)N [guanidinium] | 25.8 ± 3.9 mM | 386±34% | – | – | – | – | – | – | – | –
CN(C)C(=N)N=C(N)N [metformin] | 19.4 ± 1.4 mM | 338±41% | ~ 25% | No inhibition | 237 ± 13 µM | 10 mM | ~ 10 μM | – | – | mode of inhibition of complex I ([1]; Michaelis-Menten analysis towards decylubiquinone): reversible non-competitive inhibitor; IC50 (complex I [2]): 22.6 ± 4.3 mM; IC50 (complex I [3]): 60.7 ± 8.5 mM; NADH:FeCN reaction rate (stimulation) (complex I [4]): 166±1%; NADH:FeCN reaction rate (stimulation) (complex I [5]): 144±2%; increase of the dissociation constant for NADH to the reduced flavin (complex I flavin site): ~ 20 times; KNADHRed (dissociation constant for NADH binding to the reduced flavin) (complex I flavin site; control 11 μM, data fit): 181 µM; stimulation of H2O2 production rate ([6]; 50 mM metformin): 270±34%; stimulation of H2O2 production rate ([6]; 100 mM metformin): 360±35%; time for inhibition to attain the same level when added during catalysis (complex I in SMPs): more than 30 min; IC50 (143B osteosarcoma cells): 240 ± 10 µM; IC50 [7]: 330 ± 20 µM; IC50 ([7]; Homo sapiens, HepG2, 6 h): 325 ± 25 µM; IC50 [9]: 66 mM
CCCCNC(=N)NC(=N)N [buformin] | – | – | – | No inhibition | – | – | – | 74±3% | – | –
[H]/N=C(\N/C(=N/[H])Nc1ccc(Cl)cc1)NC(C)C [proguanil] | – | – | – | neither cycloguanil or proguanil affect ATP synthesis | – | – | – | no significant inhibition | neither proguanil nor cycloguanil exhibited any substantial effect | IC50 (F1FO-ATPase): 6.8 ± 0.7 µM; IC50 [12]: 670 ± 100 nM
CC1(C)N=C(N)N=C(N)N1c1ccc(Cl)cc1 [cycloguanil] | – | – | – | neither cycloguanil or proguanil affect ATP synthesis | – | – | – | no significant inhibition | neither proguanil nor cycloguanil exhibited any substantial effect | IC50 (complex III): 2.48 ± 0.21 mM
[H]/N=C(/N)N/C(=N/[H])NCCc1ccccc1 [phenformin] | – | – | ~ 25% | inhibition of synthesis is observed at higher concentrations | 3.81 ± 1.12 µM | 0.2 mM | ~ 200 nM | 32±7.5% | – | IC50 ([7]; Homo sapiens, HepG2): 3.8 ± 0.38 µM; time for uptake to reach completion ([7]; concentration equal to complex I IC50/10 (0.04 mM phenformin)): approximately 6 h; accumulation (isolated complex I IC50 versus cellular IC50) (143B and Hep G2 cells): 120 fold
